Experimental data taken from BigSolDB 2.1.

O=C(O)/C=C\C=C/C(=O)O
solubility (mole fraction)
Conditions | in acetic acid | in ethanol | in isopropanol | in water
298.15 K | 0.0029 | 0.0117 | 0.0101 | 0.0002
303.15 K | 0.0034 | 0.0139 | 0.0107 | 0.0004
308.15 K | 0.0039 | 0.016 | 0.0124 | 0.0006
313.15 K | 0.0044 | 0.0184 | 0.0139 | 0.0008
318.15 K | 0.0052 | 0.0236 | 0.0156 | 0.0014
323.15 K | 0.0057 | 0.0293 | 0.017 | 0.0021
328.15 K | 0.0065 | 0.037 | 0.0204 | 0.0031
333.15 K | 0.0076 | 0.0478 | 0.0244 | 0.005
338.15 K | 0.0086 | 0.0595 | 0.0274 | 0.0068
343.15 K | 0.01 | 0.0715 | 0.0297 | 0.0106
348.15 K | 0.0125 | 0.0847 | 0.0342 | 0.0153
